In patent US20130324526A1, “[1,2,4] TRIAZOLO [4,3-B] PYRIDAZINE COMPOUNDS AS INHIBITORS OF THE C-MET TYROSINE KINASE” (NOVARTIS AG, priority 2011, published 2013):

Assays:
[1] = biological target: c-MET receptor tyrosine kinase, GST-c-MET(969-1390) (Homo sapiens, UniProt P08581); experiment: EPK c-MET profiling assay (LanthaScreen TR-FRET kinase assay); type: biochemical; conditions: 2 μM ATP, 0.3 nM enzyme, 60 minutes at room temperature; end point measurement, repeats can be about two times higher or lower; read-out: c-Met Biochem IC50
Chain of c-MET receptor tyrosine kinase, GST-c-MET(969-1390) (P08581 969-1390): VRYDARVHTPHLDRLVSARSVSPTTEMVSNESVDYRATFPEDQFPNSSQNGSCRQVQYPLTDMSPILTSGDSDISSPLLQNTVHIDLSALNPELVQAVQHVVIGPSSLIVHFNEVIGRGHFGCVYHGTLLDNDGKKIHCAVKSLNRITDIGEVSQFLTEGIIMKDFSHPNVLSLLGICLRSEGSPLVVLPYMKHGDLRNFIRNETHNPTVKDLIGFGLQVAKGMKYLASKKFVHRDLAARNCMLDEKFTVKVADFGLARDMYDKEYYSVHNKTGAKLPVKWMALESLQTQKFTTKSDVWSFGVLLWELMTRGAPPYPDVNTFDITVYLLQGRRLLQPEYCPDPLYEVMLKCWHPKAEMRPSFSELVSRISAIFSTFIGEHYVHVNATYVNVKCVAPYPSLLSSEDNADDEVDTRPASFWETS
Protocol: The exemplified compounds of the present invention were assayed in an antibody based kinase phosphorylation assay as follows.
EPK c-MET Profiling Assay:
The EPK kinase assay for c-MET receptor tyrosine kinase was developed, using the purified recombinant GST-fusion protein, containing the cytoplasmic domain of the enzyme. GST-c-MET(969-1390) was purified by affinity chromatography.
The kinase assay is based on the LanthaScreen™ technology. LanthaScreen™ is the detection of Time-Resolved Fluorescence Resonance Energy Transfer (TR-FRET) using lanthanide chelates to measure interactions between various binding partners. In a TR-FRET kinase assay, a long-lifetime lanthanide donor species is conjugated to an antibody that specifically binds to a phosphorylated product of a kinase reaction that is labeled with a suitable acceptor fluorophore. This antibody-mediated interaction brings the lanthanide donor and the acceptor into proximity such that resonance energy transfer can take place, resulting in a detectable increase in the FRET signal.
The kinase reactions were performed in 384 well microtiter plates in a total reaction volume of 10.05 μL. The assay plates were prepared with 0.05 μL per well of test compound in the appropriate test concentration, as described under “preparation of compound dilutions”. The reactions were started by combining 5 μL of ATP solution with 5 μL of enzyme-substrate mix (consisting of kinase and substrate). The final concentrations in the kinase reactions were 25 mM Tris/HCl, 1 mM DTT, 0.025% Tween20, 10 μM sodium orthovanadate, 0.25% BSA, 0.5% DMSO, 10 mM MgCl2, 3 mM MnCl2, 2 μM ATP, 50 nM Fluorescein-PolyEAY, and 0.3 nM enzyme. The reactions were incubated for 60 minutes at room temperature and stopped by adding 5 μL of stop buffer (50 mM EDTA, 0.04% NP40, 20 mM Tris/HCl). Subsequently 5 μL of detection mix (50 mM Tris/HCl, 2 mM DTT, 0.05% Tween20, 20 μM sodium orthovanadate, 1% BSA, 1 nM Tb-PY20 antibody) were added to the stopped reactions. After 45 minutes incubation in dark at room temperature, the plates were measured in a Perkinelmer Envision fluorescence reader. The effect of compound on the enzymatic activity was in all assays obtained from the linear progress curves and normally determined from one reading (end point measurement).
These endpoint results should therefore only be seen as an indicator for the activity range, since repeated measurements can result in about two times higher or lower values.

[2] = system: GTL16 cells; experiment: GTL16 cell viability assay (CellTiter Glo); type: cell-based; conditions: Homo sapiens, GTL 16, GTL16 gastric cancer cells, 24 hours, triplicates, read-out: GTL-16 Proliferation IC50
Protocol: GTL16 cell line is derived from a gastric cancer patient. GTL16 expresses high level of c-Met receptor tyrosine kinase due to the gene amplification.
GTL16 cells were seeded in DMEM medium with 10% FBS and 1% Pene. & Strep. at 5000 cells/well/90 μL in 96 well plate and incubated overnight for attachment at 37° C. in 5% CO2 incubator. 10-fold serials dilutions of compounds were added to the cell as 10 μL/well. The final assay volume was 100 μl/well. The assay plates were incubated at 37° C. in 5% CO2 incubator for 24 hours. […] Briefly, the plates were cooled at room temperature for 10 mins and 100 μl of CellTiter Glo reagent was added into each well. Plates were shaken for 10 mins. The chemiluminescent light unit was read in Envision from Perkin Elmer. All the tests were run at triplicates. The IC50 was calculated using Spotfire software.

[3] = biological target: T1, human platelet PDE3 (Homo sapiens, UniProt Q14432); experiment: hPDE3 assay ([3H]cAMP scintillation proximity assay); type: biochemical; conditions: human platelet PDE3, [3H]cAMP SPA, 30 min at room temperature
T1 construct: Human platelet PDE3 (partially purified from human platelets); from tissue; host or cells: human platelets
T1 sequence (Q14432 whole entry): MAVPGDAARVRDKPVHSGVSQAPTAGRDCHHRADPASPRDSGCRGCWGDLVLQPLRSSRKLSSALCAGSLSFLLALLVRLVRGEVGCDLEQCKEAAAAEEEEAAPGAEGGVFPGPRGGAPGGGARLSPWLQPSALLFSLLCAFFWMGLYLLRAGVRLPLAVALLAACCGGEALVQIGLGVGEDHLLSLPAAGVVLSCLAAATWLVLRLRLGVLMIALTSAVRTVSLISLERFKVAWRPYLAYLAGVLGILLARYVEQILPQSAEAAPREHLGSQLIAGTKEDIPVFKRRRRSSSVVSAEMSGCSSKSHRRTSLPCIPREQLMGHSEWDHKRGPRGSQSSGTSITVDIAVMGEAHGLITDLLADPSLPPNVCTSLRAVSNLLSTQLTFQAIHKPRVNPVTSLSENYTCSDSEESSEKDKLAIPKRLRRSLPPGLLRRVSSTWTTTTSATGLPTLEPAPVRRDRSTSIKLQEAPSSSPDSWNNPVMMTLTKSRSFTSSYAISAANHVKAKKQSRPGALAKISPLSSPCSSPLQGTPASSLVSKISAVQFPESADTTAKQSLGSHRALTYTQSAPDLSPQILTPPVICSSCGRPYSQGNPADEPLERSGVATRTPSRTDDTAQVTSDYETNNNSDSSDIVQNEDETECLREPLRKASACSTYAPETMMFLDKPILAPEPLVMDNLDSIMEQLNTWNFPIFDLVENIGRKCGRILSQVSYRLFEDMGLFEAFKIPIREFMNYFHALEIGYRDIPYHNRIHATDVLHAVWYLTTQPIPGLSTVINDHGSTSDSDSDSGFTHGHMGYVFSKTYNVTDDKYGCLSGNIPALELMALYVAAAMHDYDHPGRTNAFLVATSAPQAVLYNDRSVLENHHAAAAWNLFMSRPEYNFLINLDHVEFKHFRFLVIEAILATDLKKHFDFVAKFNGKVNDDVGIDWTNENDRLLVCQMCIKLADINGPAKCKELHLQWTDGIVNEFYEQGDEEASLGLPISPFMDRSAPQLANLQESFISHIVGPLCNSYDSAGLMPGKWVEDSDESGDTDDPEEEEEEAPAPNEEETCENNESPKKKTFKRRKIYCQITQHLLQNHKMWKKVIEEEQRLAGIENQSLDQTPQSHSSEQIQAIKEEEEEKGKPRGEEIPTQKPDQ

Compound	IC50 [1]	IC50 [3]	IC50 [2]
C/C(=N\O)c1ccc2nnc([C@H](C)c3c(F)cc4ncc(C(C)(C)O)cc4c3F)n2n1 [24-(R)]	146 nM	6 µM	126 nM
CCO/N=C(\C)c1ccc2nnc(C(C)c3ccc4ncc(-c5cnn(C)c5)cc4c3)n2n1 (centres unmarked) [Example 2, (E)-1-(3-{1-[3-(1-Methyl-1H-pyrazol-4-yl)quinolin-6-yl]-ethyl}-[1,2,4]triazolo[4,3-b]pyridazin-6-yl)-ethanone O-ethyl-oxime]	6 nM		2 nM
CO/N=C(\C)c1ccc2nnc([C@H](C)c3ccc4ncc(-c5cnn(C)c5)cc4c3)n2n1 [Example 3-(R)]	26 nM	11 µM	27 nM
C/C(=N\OCC1CC1)c1ccc2nnc(C(C)c3ccc4ncc(-c5cnn(C)c5)cc4c3)n2n1 (centres unmarked) [Example 4, (E)-1-(3-{1-[3-(1-Methyl-1H-pyrazol-4-yl)quinolin-6-yl]-ethyl}-[1,2,4]triazolo[4,3-b]pyridazin-6-yl)-ethanone O-cyclopropylmethyl-oxime]	25 nM		
C/C(=N\OCC1CC1)c1ccc2nnc([C@H](C)c3ccc4ncc(-c5cnn(C)c5)cc4c3)n2n1 [Example 4-(R)]	144 nM	10 µM	99 nM
C/C(=N\OCC1CC1)c1ccc2nnc([C@@H](C)c3ccc4ncc(-c5cnn(C)c5)cc4c3)n2n1 [Example 4-(S)]	23 nM	1.2 µM	9 nM
C/C(=N\OCC1CC1)c1ccc2nnc(Cc3ccc4ncc(-c5cnn(C)c5)cc4c3)n2n1 [Example 7, (E)-1-{3-[3-(1-Methyl-1H-pyrazol-4-yl)quinolin-6-ylmethyl]-[1,2,4]triazolo[4,3-b]pyridazin-6-yl}-ethanone O-cyclopropylmethyl-oxime]	11 nM		8 nM
C/C(=N\OCC1CC1)c1ccc2nnc(C(C)c3ccc4ncc(CN5CCOCC5)cc4c3)n2n1 (centres unmarked) [Example 9, (E)-1-{3-[1-(3-Morpholin-4-ylmethyl-quinolin-6-yl)-ethyl]-[1,2,4]triazolo[4,3-b]pyridazin-6-yl}-ethanone O-cyclopropylmethyl-oxime]	86 nM		311 nM
C/C(=N\O)c1ccc2nnc(Cc3ccc4ncc(CN5CCN(C)CC5)cc4c3)n2n1 [Example 16, (E)-1-(3-((3-((4-Methylpiperazin-1-yl)methyl)quinolin-6-yl)methyl)-[1,2,4]triazolo[4,3-b]pyridazin-6-yl)ethanone oxime]	25 nM		491 nM
C/C(=N\O)c1ccc2nnc(Cc3ccc4ncc(CN5CCCCC5)cc4c3)n2n1 [Example 18, (E)-1-(3-((3-(Piperidin-1-ylmethyl)quinolin-6-yl)methyl)-[1,2,4]triazolo[4,3-b]pyridazin-6-yl)ethanone oxime]	207 nM		317 nM
C/C(=N\O)c1ccc2nnc(Cc3ccc4ncc(N5C[C@@H]6C[C@H]5CN6C)cc4c3)n2n1 [Example 19, (E)-1-(3-((3-((1S,4S)-5-Methyl-2,5-diazabicyclo[2.2.1]heptan-2-yl)quinolin-6-yl)methyl)-[1,2,4]triazolo[4,3-b]pyridazin-6-yl)ethanone oxime]	5 nM		12 nM
C/C(=N\O)c1ccc2nnc(Cc3c(F)cc4ncc(-c5c(C)noc5C)cc4c3F)n2n1 [Example 23, (E)-1-(3-((3-(3,5-Dimethylisoxazol-4-yl)-5,7-difluoroquinolin-6-yl)methyl)-[1,2,4]triazolo[4,3-b]pyridazin-6-yl)ethanone oxime]	8 nM		11 nM
C/C(=N\O)c1ccc2nnc(C3(c4ccc5ncc(N6CCN(C)CC6)cc5c4)CC3)n2n1 [Example 27]	31 nM		240 nM

More lines, main results first:

IC50 [1]	IC50 [3]	Compound	IC50 [2]
5 nM	8 µM	C/C(=N\O)c1ccc2nnc([C@@H](C)c3c(F)cc4ncc(C(C)(C)O)cc4c3F)n2n1 [24-(S)]	80 nM
5 nM		C/C(=N\O)c1ccc2nnc(C(C)c3ccc4ncc(-c5cnn(C)c5)cc4c3)n2n1 (centres unmarked) [Example 1, (E)-1-(3-{1-[3-(1-Methyl-1H-pyrazol-4-yl)quinolin-6-yl]-ethyl}-[1,2,4]triazolo[4,3-b]pyridazin-6-yl)-ethanone oxime]	9 nM
5 nM	2 µM	CO/N=C(\C)c1ccc2nnc([C@@H](C)c3ccc4ncc(-c5cnn(C)c5)cc4c3)n2n1 [Example 3-(S)]	1 nM
5 nM		C/C(=N\N)c1ccc2nnc(C(C)c3ccc4ncc(-c5cnn(C)c5)cc4c3)n2n1 (centres unmarked) [Example 5]	1 nM
4 nM		CO/N=C(\C)c1ccc2nnc(Cc3ccc4ncc(-c5cnn(C)c5)cc4c3)n2n1 [Example 6, (E)-1-{3-[3-(1-Methyl-1H-pyrazol-4-yl)quinolin-6-ylmethyl]-[1,2,4]triazolo[4,3-b]pyridazin-6-yl}-ethanone O-methyl-oxime]	0.5 nM
3 nM		CCO/N=C(\C)c1ccc2nnc(Cc3ccc4ncc(-c5cnn(C)c5)cc4c3)n2n1 [Example 8, (E)-1-{3-[3-(1-Methyl-1H-pyrazol-4-yl)quinolin-6-ylmethyl]-[1,2,4]triazolo[4,3-b]pyridazin-6-yl}-ethanone O-ethyl-oxime]	0.3 nM
4 nM		C/C(=N\O)c1ccc2nnc(Sc3ccc4ncc(N5CCOCC5)cc4c3)n2n1 [Example 10, (E)-1-[3-(3-Morpholin-4-yl-quinolin-6-ylsulfanyl)-[1,2,4]triazolo[4,3-b]pyridazin-6-yl]-ethanone oxime]	1 nM
1 nM	> 30 µM	C/C(=N\O)c1ccc2nnc(Cc3c(F)cc4ncc(N5CCOCC5)cc4c3F)n2n1 [Example 11, (E)-1-[3-(5,7-Difluoro-3-morpholin-4-yl-quinolin-6-ylmethyl)-[1,2,4]triazolo[4,3-b]pyridazin-6-yl]-ethanone oxime]	6 nM
0.5 nM	9 µM	C/C(=N\O)c1ccc2nnc(Cc3ccc4ncc(-c5cnn(C)c5)cc4c3)n2n1 [Example 12, (E)-1-(3-((3-(1-Methyl-1H-pyrazol-4-yl)quinolin-6-yl)methyl)-[1,2,4]triazolo[4,3-b]pyridazin-6-yl)ethanone oxime]	1 nM
3 nM		C/C(=N\O)c1ccc2nnc(Cc3c(F)cc4ncc(CN5CCOCC5)cc4c3F)n2n1 [Example 17, (E)-1-(3-((5,7-Difluoro-3-(morpholin-4-yl-methyl)quinolin-6-yl)methyl)-[1,2,4]triazolo[4,3-b]pyridazin-6-yl)ethanone oxime]	10 nM
4 nM		C/C(=N\O)c1ccc2nnc(Cc3ccc4ncc(N5CCC(O)CC5)cc4c3)n2n1 [Example 20, (E)-1-(3-((3-(4-Hydroxypiperidin-1-yl)quinolin-6-yl)methyl)-[1,2,4]triazolo[4,3-b]pyridazin-6-yl)ethanone oxime]	17 nM
0.9 nM		C/C(=N\O)c1ccc2nnc(Sc3ccc4ncc(N5CCC(N(C)C)C5)cc4c3)n2n1 (centres unmarked) [Example 33, (E)-1-(3-((3-(3-(dimethylamino)pyrrolidin-1-yl)quinolin-6-yl)sulfanyl)-[1,2,4]triazolo[4,3-b]pyridazin-6-yl)ethanone oxime]	1 nM
2 nM		C/C(=N\O)c1ccc2nnc(Cc3ccc4ncc(NC5CCOCC5)cc4c3)n2n1 [Example 34, (E)-1-{3-[3-(Tetrahydro-pyran-4-ylamino)-quinolin-6-ylmethyl]-[1,2,4]triazolo[4,3-b]pyridazin-6-yl}-ethanone oxime]	10 nM
